What was measured:
PC-3 = assay: Antiproliferative activity against human PC3 cells after 48 hrs by MTT assay; format: functional, cell-based; details: PC-3, 48 h
[1] = Stability of the compound in anhydrous methanol solution under dark condition after 24 hrs by UV-vis spectroscopic analysis
[2] = Photostability of the compound in anhydrous methanol solution under UV irradiation of 15 W after 24 hrs by UV-vis spectroscopic analysis

Compound	IC50 (PC-3) [µM]	Stability [1]	Stability [2]
COc1cccc2c1C(=O)c1c(O)c3c(c(O)c1C2=O)C[C@@](O)(C(=O)CO)C[C@@H]3O[C@H]1C[C@H](N)[C@H](O)[C@H](C)O1 [DOXORUBICIN]	2.6	–	–
CN1/C(=C/C=C2\CCCC(/C=C/C3=[N+](C)c4ccccc4C3(C)C)=C2Oc2ccncc2)C(C)(C)c2ccccc21.[I-]	5.22	Stable	Stable
CCN(CCO)C1=C(/C=C/C2=[N+](C)c3ccccc3C2(C)C)CCC/C1=C\C=C1\N(C)c2ccccc2C1(C)C	9.08	–	–
CN1/C(=C/C=C2\CCCC(/C=C/C3=[N+](C)c4ccccc4C3(C)C)=C2NCCO)C(C)(C)c2ccccc21.[I-]	4.73	Stable	Stable

Continued by falling IC50 (PC-3), values first:

IC50 (PC-3) [µM]	Stability [1]	Stability [2]	Compound
13.2	–	–	CN(C)CCNC1=C(/C=C/C2=[N+](C)c3ccccc3C2(C)C)CCC/C1=C\C=C1\N(C)c2ccccc2C1(C)C
12.5	Stable	Stable	CN1/C(=C/C=C2\CCCC(/C=C/C3=[N+](C)c4ccccc4C3(C)C)=C2Sc2ccncc2)C(C)(C)c2ccccc21.[I-]
9.33	–	–	CN1/C(=C/C=C2\CCCC(/C=C/C3=[N+](C)c4ccccc4C3(C)C)=C2N2CCC(CO)CC2)C(C)(C)c2ccccc21
9.23	–	–	CN(CCO)C1=C(/C=C/C2=[N+](C)c3ccccc3C2(C)C)CCC/C1=C\C=C1\N(C)c2ccccc2C1(C)C
6.04	–	–	CN(C)CCSC1=C(/C=C/C2=[N+](C)c3ccccc3C2(C)C)CCC/C1=C\C=C1\N(C)c2ccccc2C1(C)C

— ChEMBL document CHEMBL4184087, “Synthesis, optical properties and cytotoxicity of meso-heteroatom substituted IR-786 analogs” (Bioorg Med Chem Lett, 2018)
